Assay results from patent publication US4275248A, “Preparation of 2,4,6-triisopropylphenol” (UOP Inc., priority 1980, dated 1981).
Entries after “also recorded” stand apart in the source; their conditions may differ. Where two headings read alike, the source gives them in different places.

What was measured:
[1] = Gum formation under accelerated storage conditions, ANSI/ASTM method D873-74, gasoline sample B; conditions: runs 4-7 (no additive: 320)
Method: (§1) The effectiveness of materials as antioxidants in liquid petroleum products was determined by measurement of the induction period prior to oxidation, ANSI/ASTM method D525-74, and by measurement of gum formation under accelerated storage conditions, ANSI/ASTM method D873-74. The liquid petroleum product was either a base washed riser-cracked gasoline from British Petroleum Co., Canada (sample A) or a base washed, blended full range gasoline from Union Oil (sample B). As a comparison, there is included an antioxidant of wide commercial utility which consists of 2,6-di-t-butylphenol (75%), 2,4,6-tri-t-butylphenol (15%) and 2,t-butylphenol (10%) and which we designate by the symbol E733.

[2] = Induction period prior to oxidation, ANSI/ASTM method D525-74, gasoline sample B; conditions: runs 4-7 (no additive: 80-105)
Method: as §1

[3] = Oxidative stability of gasoline / petroleum distillates, overall antioxidant effectiveness in words; conditions: for effectiveness in increasing the induction period: versus commercial product commonly used to stabilize gasoline
Text: Among the products which may be prepared by this invention, the di- and tri-isopropylated hydroxy substituted aromatic compounds are effective antioxidants for stabilizing various petroleum distillates. Examples of the latter include home heating fuel, gasoline, diesel fuel, aviaton fuel, kerosene, and lubricating oils. […] One way of determining the stabilizing effect of additives is to compare the induction period to oxidation of a composton differing only in the nature of the additive present. […] The di- and tri-isopropylated phenols of the present invention may be used as antioxidants at concentrations from about 5 parts per million by weight to about 5% by weight, and preferably from about 5 to about 500 parts per million by weight when used in fuel oils.
as §1

[4] = Gum formation under accelerated storage conditions, ANSI/ASTM method D873-74, gasoline sample A
Method: as §1

[5] = Induction period prior to oxidation, ANSI/ASTM method D525-74, gasoline sample A
Method: as §1

[6] = 35 ppm, runs 4-7 (no additive: 180)
[7] = 50 ppm, runs 4-7 (no additive: 180)
[8] = 20 ppm, runs 4-7 (no additive: 125-130)
[9] = 35 ppm, runs 4-7 (no additive: 125-130)
[10] = 50 ppm, runs 4-7 (no additive: 125-130)

| antioxidant effectiveness for stabilizing petroleum distillates [3] | Compound | Accelerated Gum ([1]; 20 ppm) [mg/100 ml] | Accelerated Gum ([1]; 35 ppm) [mg/100 ml] | Accelerated Gum ([1]; 50 ppm) [mg/100 ml] | Induction Period ([2]; 20 ppm) [min] | Induction Period ([2]; 35 ppm) [min] | Induction Period ([2]; 50 ppm) [min] | imparting oxidative stability to the gasolines tested [3] | effectiveness in increasing the induction period [3] | Accelerated Gum [4, 6] | Accelerated Gum [4, 7] | Induction Period [5, 8] [min] | Induction Period [5, 9] [min] | Induction Period [5, 10] [min] | antioxidant effectiveness for stabilizing petroleum distillates ([3]; general statement in words) | imparting oxidative stability to the gasolines tested ([3]; versus commercial standard, measured by increase in induction period and decrease in gum formation) | Accelerated Gum ([4]; 20 ppm, runs 1-3 (no additive: 45)) [mg/100 ml] | Accelerated Gum ([4]; 40 ppm, runs 1-3 (no additive: 45)) [mg/100 ml] | Induction Period ([5]; 20 ppm, runs 1-3 (no additive: 170)) [min] | Induction Period ([5]; 40 ppm, runs 1-3 (no additive: 170)) [min] |
| --- | --- | --- | --- | --- | --- | --- | --- | --- | --- | --- | --- | --- | --- | --- | --- | --- | --- | --- | --- | --- |
| particularly effective | CC(C)c1cc(C(C)C)c(O)c(C(C)C)c1 [2,4,6-triisopropylphenol] | 13 | 2.5 | 2.5 | 270 | 350 | 420 | substantially more effective than an accepted commercial standard | substantially more effective in increasing the induction period | 7-8 mg/100 ml | 7-8 mg/100 ml | 245 | 310 | 375 | – | – | – | – | – | – |
| – | CC(C)c1cccc(C(C)C)c1O [2,6-diisopropylphenol] | – | 4.5 | 3.5 | 195 | 250 | 310 | – | – | 35 mg/100 ml | 9 mg/100 ml | 200 | 240 | 305 | – | – | – | – | – | – |
| – | Cc1cc(C(C)C)c(O)c(C(C)C)c1 [2,6-diisopropyl-4-methylphenol] | – | – | – | – | – | – | – | substantially more effective in increasing the induction period | – | – | – | – | – | particularly effective; also recorded: particularly desirable antioxidant properties | substantially more effective than an accepted commercial standard | 5 | 3 | 340 | 475 |
